Key:
Format in all cases: functional
[1] = system: Radical scavenging activity; test: Antioxidant activity assessed as DPPH radical scavenging activity at 1 mM after 20 min by UV-Visible spectrophotometry
[2] = Antioxidant activity assessed as hydroxyl radical scavenging activity at 1 mM after 5 min by UV-Visible spectrophotometry
[3] = Antioxidant activity assessed as ferric reducing activity at 1 mM after 5 min by UV-Visible spectrophotometry; parameters: scale not given: the % may be the effect or the level left
Candida albicans = test: Antimicrobial activity against Candida albicans MTCC 3017 at 10 ug after 48 hr by agar disk diffusion method; details: MTCC 3017, 48 h, read-out: DIZ
Escherichia coli = test: Antimicrobial activity against Escherichia coli DH5[alpha] at 20 ug after 24 hr by agar disk diffusion method; details: read-out: DIZ
Proteus vulgaris = test: Antimicrobial activity against Proteus vulgaris MTCC 1751 at 20 ug after 24 hr by agar disk diffusion method; details: MTCC 1751, 24 h, read-out: DIZ
Staphylococcus aureus = test: Antimicrobial activity against Staphylococcus aureus MTCC 96 at 20 ug after 24 hr by agar disk diffusion method; details: MTCC 96, 24 h, read-out: DIZ

## O=C1O[C@H]([C@@H](O)CO)C(O)=C1O
[1]
  Activity: 95.8%
[2]
  Activity: 88.3%
[3]
  Activity: 78.2%

## OC(Cn1cncn1)(Cn1cncn1)c1ccc(F)cc1F [FLUCONAZOLE]
Candida albicans
  zone of inhibition at 10 µg/disc: 6.5 mm

## CN[C@@H]1[C@H](O[C@H]2[C@H](O[C@H]3[C@H](O)[C@@H](O)[C@H](N=C(N)N)[C@@H](O)[C@@H]3N=C(N)N)O[C@@H](C)[C@]2(O)C=O)O[C@@H](CO)[C@H](O)[C@H]1O [STREPTOMYCIN]
Escherichia coli
  zone of inhibition at 20 µg/disc: 2.5 mm
Proteus vulgaris
  zone of inhibition at 20 µg/disc: 2.4 mm
Staphylococcus aureus
  zone of inhibition at 20 µg/disc: 2 mm

— ChEMBL document CHEMBL3046962, “Synthesis of new olefin chalcone derivatives as antitumor, antioxidant and antimicrobial agents” (Med Chem Res, 2012)
